Results reported in PubChem BioAssay (NCI).
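Each compound was tested at five concentrations against cells in 96-well plates for 48 hours. TGI: concentration producing complete growth inhibition.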

Assays:
Test in all cases: NCI tumour cell line growth inhibition, 48 h
[1] = test system: P388/ADR leukemia
[2] = test system: DLD-1 colon
[3] = test system: HOP-92 NSCLC
[4] = test system: NCI-H460 lung
[5] = test system: SW-620 colon
[6] = test system: DMS 114 small cell lung
[7] = test system: A549 NSCLC
[8] = test system: MCF7 breast
[9] = test system: SK-OV-3 ovarian
[10] = test system: KM20L2 colon
[11] = test system: SK-MEL-5 melanoma
[12] = test system: SF-295 CNS
[13] = test system: IGROV1 ovarian
[14] = test system: SNB-19 CNS
[15] = test system: UACC-62 melanoma
[16] = test system: MOLT-4 leukemia
[17] = test system: SF-268 CNS
[18] = test system: SF-539 CNS
[19] = test system: NCI/ADR-RES ovarian
[20] = test system: OVCAR-4 ovarian
[21] = test system: XF 498 CNS
[22] = test system: SK-MEL-28 melanoma
[23] = test system: K-562 leukemia
[24] = test system: CCRF-CEM leukemia
[25] = test system: LOX IMVI melanoma
[26] = test system: SN12C renal
[27] = test system: HT29 colon
[28] = test system: COLO 205 colon
[29] = test system: OVCAR-5 ovarian
[30] = test system: HOP-62 NSCLC
[31] = test system: RPMI-8226 leukemia
[32] = test system: A498 renal
[33] = test system: UACC-257 melanoma
[34] = test system: NCI-H23 lung
[35] = test system: SK-MEL-2 melanoma
[36] = test system: OVCAR-8 ovarian
[37] = test system: M19-MEL melanoma
[38] = test system: HOP-18 NSCLC
[39] = test system: MALME-3M melanoma
[40] = test system: DMS 273 small cell lung
[41] = test system: SNB-78 CNS
[42] = test system: HCT-116 colon
[43] = test system: NCI-H226 lung
[44] = test system: NCI-H522 lung
[45] = test system: UO-31 renal
[46] = test system: HCC-2998 colon
[47] = test system: P388 leukemia
[48] = test system: U251 CNS
[49] = test system: KM12 colon
[50] = test system: SN12K1 renal
[51] = test system: SNB-75 CNS
[52] = test system: RXF 393 renal
[53] = test system: EKVX NSCLC
[54] = test system: HL-60(TB) leukemia
[55] = test system: HCT-15 colon
[56] = test system: OVCAR-3 ovarian
[57] = test system: CAKI-1 renal

SMILES: CCCCC1=C(Br)C(=C(Br)Br)OC1=O
- TGI [1]: 5.76 µM
- TGI [2]: 4.37 µM
- TGI [3]: 23.4 µM
- TGI [4]: 16.8 µM
- TGI [5]: 12.4 µM
- TGI [6]: 5.71 µM
- TGI [7]: 33.8 µM
- TGI [8]: 15.4 µM
- TGI [9]: 31.4 µM
- TGI [10]: 24.8 µM
- TGI [11]: 13.5 µM
- TGI [12]: 23.7 µM
- TGI [13]: 5.92 µM
- TGI [14]: 20.3 µM
- TGI [15]: 6.51 µM
- TGI [16]: 5.66 µM
- TGI [17]: 7.9 µM
- TGI [18]: 10.5 µM
- TGI [19]: 11.9 µM
- TGI [20]: 3.32 µM
- TGI [21]: 19.9 µM
- TGI [22]: 7.78 µM
- TGI [23]: 13 µM
- TGI [24]: 7.81 µM
- TGI [25]: 4.78 µM
- TGI [26]: 7.92 µM
- TGI [27]: 10.2 µM
- TGI [28]: 8.11 µM
- TGI [29]: 30.3 µM
- TGI [30]: 19 µM
- TGI [31]: 4.67 µM
- TGI [32]: 31 µM
- TGI [33]: 6.16 µM
- TGI [34]: 15.8 µM
- TGI [35]: 8.49 µM
- TGI [36]: 11.4 µM
- TGI [37]: 8.42 µM
- TGI [38]: 10.5 µM
- TGI [39]: 5.31 µM
- TGI [40]: 8.01 µM
- TGI [41]: 37 µM
- TGI [42]: 8.85 µM
- TGI [43]: 9.35 µM
- TGI [44]: 3.5 µM
- TGI [45]: 24.2 µM
- TGI [46]: 18.1 µM
- TGI [47]: 2.4 µM
- TGI [48]: 17.1 µM
- TGI [49]: 9.28 µM
- TGI [50]: 3.96 µM
- TGI [51]: 16.5 µM
- TGI [52]: 5.95 µM
- TGI [53]: 10.6 µM
- TGI [54]: 5.38 µM
- TGI [55]: 5.55 µM
- TGI [56]: 6.05 µM
- TGI [57]: 5.53 µM

SMILES: O=C1c2cccc3cc4ccccc4c(c23)C(=O)N1CCNCCNCCNCCN1C(=O)c2cccc3cc4ccccc4c(c23)C1=O
- TGI [1]: 0.47 µM
- TGI [2]: 0.344 µM
- TGI [3]: 0.254 µM
- TGI [4]: 0.0233 µM
- TGI [5]: 0.308 µM
- TGI [6]: 0.177 µM
- TGI [7]: 1 µM
- TGI [8]: 1.87 µM
- TGI [10]: 0.597 µM
- TGI [11]: 0.578 µM
- TGI [12]: 0.281 µM
- TGI [13]: 1.22 µM
- TGI [14]: 0.927 µM
- TGI [15]: 0.156 µM
- TGI [16]: 0.212 µM
- TGI [17]: 0.197 µM
- TGI [18]: 0.288 µM
- TGI [19]: 1.53 µM
- TGI [20]: 0.314 µM
- TGI [21]: 0.178 µM
- TGI [22]: 0.324 µM
- TGI [24]: 0.637 µM
- TGI [25]: 0.155 µM
- TGI [26]: 1.41 µM
- TGI [27]: 0.552 µM
- TGI [28]: 0.184 µM
- TGI [29]: 0.672 µM
- TGI [32]: 0.566 µM
- TGI [33]: 0.767 µM
- TGI [34]: 0.159 µM
- TGI [35]: 0.252 µM
- TGI [36]: 0.735 µM
- TGI [37]: 0.161 µM
- TGI [38]: 0.398 µM
- TGI [39]: 0.78 µM
- TGI [40]: 0.159 µM
- TGI [41]: 0.385 µM
- TGI [42]: 1.11 µM
- TGI [43]: > 100 µM
- TGI [45]: 0.36 µM
- TGI [46]: 0.0829 µM
- TGI [48]: 0.539 µM
- TGI [51]: 0.106 µM
- TGI [52]: 0.0435 µM
- TGI [53]: 0.666 µM
- TGI [54]: 0.212 µM
- TGI [55]: 0.474 µM
- TGI [56]: 0.546 µM
- TGI [57]: 0.344 µM

SMILES: Nc1nc(N)nc(-c2ccccc2NS(=O)(=O)c2ccc([N+](=O)[O-])cc2)n1
- TGI [1]: > 100 µM
- TGI [2]: > 100 µM
- TGI [3]: > 100 µM
- TGI [4]: > 100 µM
- TGI [5]: > 100 µM
- TGI [6]: > 100 µM
- TGI [7]: > 100 µM
- TGI [8]: > 100 µM
- TGI [9]: > 100 µM
- TGI [10]: > 100 µM
- TGI [11]: > 84.8 µM
- TGI [12]: > 100 µM
- TGI [13]: > 100 µM
- TGI [14]: > 100 µM
- TGI [15]: > 100 µM
- TGI [16]: > 100 µM
- TGI [17]: > 100 µM
- TGI [18]: > 100 µM
- TGI [19]: > 100 µM
- TGI [20]: > 100 µM
- TGI [21]: 63.5 µM
- TGI [22]: > 100 µM
- TGI [24]: > 100 µM
- TGI [25]: > 100 µM
- TGI [26]: > 100 µM
- TGI [27]: > 100 µM
- TGI [28]: > 31.6 µM
- TGI [29]: > 100 µM
- TGI [30]: > 100 µM
- TGI [31]: > 100 µM
- TGI [32]: > 100 µM
- TGI [33]: > 100 µM
- TGI [34]: > 100 µM
- TGI [35]: > 100 µM
- TGI [36]: > 100 µM
- TGI [37]: > 100 µM
- TGI [38]: > 100 µM
- TGI [39]: > 100 µM
- TGI [40]: > 100 µM
- TGI [41]: > 100 µM
- TGI [42]: > 100 µM
- TGI [43]: > 100 µM
- TGI [44]: > 100 µM
- TGI [45]: > 100 µM
- TGI [46]: > 100 µM
- TGI [47]: > 100 µM
- TGI [48]: > 100 µM
- TGI [49]: > 100 µM
- TGI [50]: > 100 µM
- TGI [51]: > 90.6 µM
- TGI [52]: > 100 µM
- TGI [53]: > 100 µM
- TGI [54]: 61.5 µM
- TGI [55]: > 100 µM
- TGI [56]: > 100 µM
- TGI [57]: > 34.6 µM
